Measured values as given in US20260035376A1, “COMPOSITIONS AND METHODS FOR INHIBITION OF RAS” (TheRas, Inc., priority 2022, published 2026).

Tests used:
[1] = target: T1, Avi-KRAS WT (1-169) GppNHp/RAF1 RBD-3×FLAG (52-151) (Homo sapiens, UniProt P01116); test: Disrupting RAS-effector binding HTRF assay, Raf1 RBD-KRAS WT-GppNHp; details: PPI HTRF, 50 nM Avi-KRAS WT GppNHp, compound titration 30-0.0045 μM; read-out: Raf1 RBD-KRAS WT-GppNHp disruption
T1 construct: 50 nM Avi-KRAS WT (1-169) GppNHp/RAF1 RBD-3×FLAG (52-151)
T1 sequence (P01116 1-169 isoform P01116-2 limits assumed): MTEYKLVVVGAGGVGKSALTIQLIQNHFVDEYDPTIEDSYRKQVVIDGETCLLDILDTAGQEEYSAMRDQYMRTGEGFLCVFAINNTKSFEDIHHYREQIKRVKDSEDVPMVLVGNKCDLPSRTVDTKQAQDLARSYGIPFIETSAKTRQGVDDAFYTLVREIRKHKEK
Protocol: (§1) A protein:protein interaction (PPI) Homogeneous Time Resolved Fluorescence (HTRF) assay was used to determine the effectiveness of compounds of the present disclosure in disrupting KRAS protein and effector RAF1 binding.
(§2) The HTRF assay used the following reagents and proteins: (i) 50 nM Avi-KRAS G12D (1-169) GppNHp/RAF1 RBD-3×FLAG (52-151); (ii) 50 nM Avi-KRAS G12R (1-169) GppNHp/RAF1 RBD-3×FLAG (52-151); (iii) 50 nM Avi-KRAS G12V (1-169) GppNHp/RAF1 RBD-3×FLAG (52-151), (iv) 50 nM Avi-KRAS WT (1-169) GppNHp/RAF1 RBD-3×FLAG (52-151); and (v) 75 nM Avi-RAF1 RBD-3×FLAG. The assay buffer included: 50 mM Tris pH 7.5, 100 mM NaCl, 5 mM MgCl2, 0.1% BSA, […], 10% DMSO. The bead buffer included: 50 mM Tris pH 7.5, 0.01% o Tween 20. Assay volume of 20 μL was used in a 384 well plate-low volume format. Compound titration: 30-0.0045 μM, 3× dilution series.
(§3) The HTRF assay employed the following protocol:
(§4) Compounds were dispensed in assay plate (384-well, Grenier Bione #784075) using Echo (model 555) with dose response settings: 200 nL final volume, titration from 30 μM as a 10-point dilution series. Protein mix was prepared in assay buffer, and dispensed on plates, 10 μL per well, then incubated for 1 h at room temperature, with 700 rpm shaking. Reagents mix was prepared and dispensed on plates, 10 μL per well, then incubated for 1 h at room temperature, with 700 rpm shaking.
(§5) Plates were analyzed on an Envision plate reader using the following setting: Excitation 320 nm, Bandwidth 75 nM; Emission 615 nm, Bandwidth 85 nM, Gain 100%, Flashes 100, Lag 60 μs. Data were reported as percentage of activity, with DMSO as 100%. Data were plotted and analyzed using Prism 8.
(§6) The biochemical Raf1-KRAS G12D/G12R/G12V/WT-GppNHP disruption assay IC50 of selected compounds described herein are shown in Table 4.

[2] = target: T2, Avi-KRAS G12R (1-169) GppNHp/RAF1 RBD-3×FLAG (52-151) (Homo sapiens, UniProt P01116, G12R); test: Disrupting RAS-effector binding HTRF assay, Raf1 RBD-KRAS G12R-GppNHp; details: PPI HTRF, 50 nM Avi-KRAS G12R GppNHp, compound titration 30-0.0045 μM; read-out: Raf1 RBD-KRAS G12R-GppNHp disruption
T2 construct: 50 nM Avi-KRAS G12R (1-169) GppNHp/RAF1 RBD-3×FLAG (52-151)
T2 sequence (P01116 1-169 isoform P01116-2 G12R limits assumed): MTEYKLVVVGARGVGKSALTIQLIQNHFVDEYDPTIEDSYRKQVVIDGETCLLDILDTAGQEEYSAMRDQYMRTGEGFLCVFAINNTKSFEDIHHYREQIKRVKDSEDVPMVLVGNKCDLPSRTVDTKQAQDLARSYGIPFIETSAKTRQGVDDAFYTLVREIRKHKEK
Protocol: as §1, §2, §3, §4, §5, §6

[3] = target: T3, Avi-KRAS G12D (1-169) GppNHp/RAF1 RBD-3×FLAG (52-151) (Homo sapiens, UniProt P01116, G12D); test: Disrupting RAS-effector binding HTRF assay, Raf1 RBD-KRAS G12D-GppNHp; details: PPI HTRF, 50 nM Avi-KRAS G12D GppNHp, compound titration 30-0.0045 μM; read-out: Raf1 RBD-KRAS G12D-GppNHp disruption
T3 construct: 50 nM Avi-KRAS G12D (1-169) GppNHp/RAF1 RBD-3×FLAG (52-151)
T3 sequence (P01116 1-169 isoform P01116-2 G12D limits assumed): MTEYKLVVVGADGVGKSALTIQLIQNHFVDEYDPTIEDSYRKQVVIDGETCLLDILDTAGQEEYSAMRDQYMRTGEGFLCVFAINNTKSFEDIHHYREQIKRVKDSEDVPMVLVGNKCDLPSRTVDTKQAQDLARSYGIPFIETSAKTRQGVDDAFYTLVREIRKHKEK
Protocol: as §1, §2, §3, §4, §5, §6

[4] = target: T4, Avi-KRAS G12V (1-169) GppNHp/RAF1 RBD-3×FLAG (52-151) (Homo sapiens, UniProt P01116, G12V); test: Disrupting RAS-effector binding HTRF assay, Raf1 RBD-KRAS G12V-GppNHp; details: PPI HTRF, 50 nM Avi-KRAS G12V GppNHp, compound titration 30-0.0045 μM; read-out: Raf1 RBD-KRAS G12V-GppNHp disruption
T4 construct: 50 nM Avi-KRAS G12V (1-169) GppNHp/RAF1 RBD-3×FLAG (52-151)
T4 sequence (P01116 1-169 isoform P01116-2 G12V limits assumed): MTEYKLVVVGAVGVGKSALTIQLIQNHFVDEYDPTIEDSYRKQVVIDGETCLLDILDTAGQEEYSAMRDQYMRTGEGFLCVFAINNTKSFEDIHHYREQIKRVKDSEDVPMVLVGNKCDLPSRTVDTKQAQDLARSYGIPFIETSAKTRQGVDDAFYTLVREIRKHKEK
Protocol: as §1, §2, §3, §4, §5, §6

[5] = tested on: KRAS G12D protein/effector signaling in GP2d cells; test: Cell-based pERK HTRF assay in GP2d cell; details: 1 h, 60 min incubation
Protocol: A pERK assay (Perkin Elmer) was used to determine the effectiveness of compounds in disrupting KRAS G12D protein/effector signaling in cells.
On Day 1, cells (GP2d) were seeded into 96-well plates at 3×10^4 cells/well in 80 μL complete growth media (DMEM, 10% FBS).
On Day 2, cells were treated with compounds at 0.25% DMSO. The source plate was created with compounds diluted in media at 5-fold the final assay concentration. The compounds were run in a 9-point concentration curve starting at […], with a half-log dilution between concentrations. 20 μL was transferred onto the cell plates (final volume in wells was 100 μL). Plates were harvested after 60 min incubation by aspirating media and adding kit-supplied 1× supplemented lysis buffer to all wells (50 μL per well). Plates were then placed on a plate shaker and incubated at 850 rpm for an additional 30 min.
Antibody mixture solution was prepared by diluting aliquoted d2 and Eu Cryptate antibodies 1:20 in kit supplied detection buffer, and mixing the diluted antibodies solutions (1:1 v:v). 4 μL of this solution was then added to a 384-well detection plate (Perkin Elmer; 6008230).
Samples were homogenized by pipetting up and down and then transferred (16 μL of cell lysates) from the 96-well cell culture plate to two wells of the HTRF 384-well detection plate containing the antibody solution. Plates were centrifuged (524 g for 1 min) and allowed to incubate between 4 and 24 h at room temperature. Maximum signal was reached after 4 h incubation time and remained stable over a period of 24 hours. Therefore, readings could be made between 4 and 24 h of incubation. Plates were centrifuged again (524 g for 1 min), then analyzed on the EnVision plate reader using the following settings: Excitation 320 nm, Bandwidth 75 nm; Emission 615 nm, Bandwidth 85 nm; Gain 100%; Flashes 100; Lag 60 μs.

Structure (SMILES) | IC50 [1] [µM] | IC50 [2] [µM] | IC50 [3] [µM] | IC50 [4] [µM] | IC50 [5] [µM]
C[C@@H]1CN(c2ncnc3c(F)c(-c4ccc(F)c5sc(N)c(C#N)c45)c(C(F)(F)F)cc23)[C@@H](C)CN1 [Compound 64] | > 10 | > 10 | 1 to 10 | > 10 | ≤ 0.1
CN(c1ncnc2c(F)c(-c3ccc(F)c4sc(N)c(C#N)c34)c(C(F)(F)F)cc12)[C@@H]1CCNC1 [Compound 58] | > 10 | > 10 | 1 to 10 | > 10 | 0.1 to 1
N#Cc1c(N)sc2c(F)ccc(-c3c(C(F)(F)F)cc4c(N5CC6CCC(C5)N6)nc(OC[C@@H]5CC(=O)N5)nc4c3F)c12 [Compound 39] | 1 to 10 | > 10 | 1 to 10 | > 10 | 0.1 to 1
CN(C(=O)c1cnn(C)c1)c1nc(N2CC3CCC(C2)N3)c2cc(C(F)(F)F)c(-c3ccc(F)c4sc(N)c(C#N)c34)c(F)c2n1 [Compound 27] | 1 to 10 | > 10 | > 10 | > 10 | 0.1 to 1
N#Cc1c(N)sc2c(F)ccc(-c3c(C(F)(F)F)cc4c(N5CC6CCC(C5)N6)nc(OCC5(O)CC5)nc4c3F)c12 [Compound 7] | > 10 | > 10 | 1 to 10 | > 10 | 0.1 to 1
N#Cc1c(N)sc2c(F)ccc(-c3c(C(F)(F)F)cc4c(N5C[C@H]6CC[C@@H](C5)N6)ncnc4c3F)c12 [Compound 5, 4-(4-((1R,5S)-3,8-diazabicyclo[3.2.1]octan-3-yl)-8-fluoro-6-(trifluoromethyl)quinazolin-7-yl)-2-amino-7-fluorobenzo[b]thiophene-3-carbonitrile] | 1 to 10 | > 10 | 1 to 10 | > 10 | ≤ 0.1
N#Cc1c(N)sc2c(F)ccc(-c3c(C(F)(F)F)cc4c(N5CC6CCC(C5)N6)nc(N5CC[C@@H](O)C5)nc4c3F)c12 [Compound 6] | 1 to 10 | > 10 | 1 to 10 | > 10 | 0.1 to 1
N#Cc1c(N)sc2c(F)ccc(-c3c(C(F)(F)F)cc4c(N5CC6CCC(C5)N6)nc(OCC5(CO)CC5)nc4c3F)c12 [Compound 18] | 1 to 10 | 1 to 10 | 0.1 to 1 | 1 to 10 | ≤ 0.1
N#Cc1c(N)sc2c(F)ccc(-c3c(C(F)(F)F)cc4c(N5CC6CCC(C5)N6)nc(OC[C@H]5CNC(=O)C5)nc4c3F)c12 [Compound 24] | 0.1 to 1 | 1 to 10 | 0.1 to 1 | 1 to 10 | ≤ 0.1
CC(=O)N(C)c1nc(N2C[C@H]3CC[C@@H](C2)N3)c2cc(C(F)(F)F)c(-c3ccc(F)c4sc(N)c(C#N)c34)c(F)c2n1 [Compound 21, N-(7-(2-amino-3-cyano-7-fluorobenzo[b]thiophen-4-yl)-4-((1R,5S)-3,8-diazabicyclo[3.2.1]octan-3-yl)-8-fluoro-6-(trifluoromethyl)quinazolin-2-yl)-N-methylacetamide] | 1 to 10 | > 10 | > 10 | > 10 | 0.1 to 1
COc1nc(N2CC3CCC(C2)N3)c2cc(C(F)(F)F)c(-c3ccc(F)c4sc(N)c(C#N)c34)c(F)c2n1 [Compound 1] | 1 to 10 | > 10 | 1 to 10 | > 10 | ≤ 0.1
N#Cc1c(N)sc2c(F)ccc(-c3c(C(F)(F)F)cc4c(N5CC6CCC(C5)N6)nc(N5CCNS(=O)(=O)CC5)nc4c3F)c12 [Compound 26] | 1 to 10 | > 10 | 1 to 10 | > 10 | 0.1 to 1
CCCc1nc(N2CC3CCC(C2)N3)c2cc(C(F)(F)F)c(-c3ccc(F)c4sc(N)c(C#N)c34)c(F)c2n1 [Compound 23] | 1 to 10 | > 10 | 1 to 10 | > 10 | ≤ 0.1
N#Cc1c(N)sc2c(F)ccc(-c3c(C(F)(F)F)cc4c(N5CC6CCC(C5)N6)nc(OC5CCC5)nc4c3F)c12 [Compound 17] | 1 to 10 | > 10 | 1 to 10 | > 10 | 0.1 to 1
N#Cc1c(N)sc2c(F)ccc(-c3c(C(F)(F)F)cc4c(N5CC6CCC(C5)N6)nc(N5CC(O)C5)nc4c3F)c12 [Compound 16] | 1 to 10 | > 10 | 1 to 10 | > 10 | 0.1 to 1
COc1nc(N(C)[C@@H]2CCNC2)c2cc(C(F)(F)F)c(-c3ccc(F)c4sc(N)c(C#N)c34)c(F)c2n1 [Compound 59] | > 10 | > 10 | 1 to 10 | > 10 | 0.1 to 1
N#Cc1c(N)sc2c(F)ccc(-c3c(C(F)(F)F)cc4c(N5CC6CCC(C5)N6)nc(N5CCCC5)nc4c3F)c12 [Compound 20] | 1 to 10 | > 10 | 1 to 10 | > 10 | 0.1 to 1
N#Cc1c(N)sc2c(F)ccc(-c3c(C(F)(F)F)cc4c(N5CC6CCC(C5)N6)nc(OCC5CCCCC5)nc4c3F)c12 [Compound 2] | > 10 | > 10 | > 10 | > 10 | 
COc1nc(N2C[C@@H](C)NC[C@@H]2C)c2cc(C(F)(F)F)c(-c3ccc(F)c4sc(N)c(C#N)c34)c(F)c2n1 [Compound 60] | > 10 | > 10 | > 10 | > 10 | > 1
CNc1nc(N2CC3CCC(C2)N3)c2cc(C(F)(F)F)c(-c3ccc(F)c4sc(N)c(C#N)c34)c(F)c2n1 [Compound 9] | 1 to 10 | > 10 | 1 to 10 | > 10 | 0.1 to 1
COCCOc1nc(N2CC3CCC(C2)N3)c2cc(C(F)(F)F)c(-c3ccc(F)c4sc(N)c(C#N)c34)c(F)c2n1 [Compound 15] | 1 to 10 | > 10 | 1 to 10 | > 10 | ≤ 0.1
